# Several values for one entry are separate records, joined by “and”; a condition that tells them apart may be missing. Equal values may be shown once.
# Biological target: T1, motor domain of human KSP (Eg 5, KNSL1) (Homo sapiens, UniProt P52732)
# T1 construct: KSP motor protein (i.e., the KSP motor domain); made in house
# T1 sequence (P52732 18-359 limits assumed): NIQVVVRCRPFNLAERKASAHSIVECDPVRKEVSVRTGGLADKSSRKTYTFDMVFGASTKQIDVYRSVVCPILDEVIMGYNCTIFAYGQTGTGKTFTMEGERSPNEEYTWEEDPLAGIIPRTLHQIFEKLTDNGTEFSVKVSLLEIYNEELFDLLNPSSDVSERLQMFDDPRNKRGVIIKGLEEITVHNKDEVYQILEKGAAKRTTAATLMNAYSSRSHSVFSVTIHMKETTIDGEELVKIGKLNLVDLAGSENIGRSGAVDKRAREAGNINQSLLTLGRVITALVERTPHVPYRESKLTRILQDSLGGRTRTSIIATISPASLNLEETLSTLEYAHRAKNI
# Assay: Assay for determining KSP activity (microtubule-stimulated ATPase, Biomol Green)
# Type: biochemical
# Settings: KSP motor domain 45 nM, microtubules 35 μg/mL, ATP, 1 hour RT, absorbance at 630 nm
# From the text: This example provides a representative in vitro assay for determining KSP activity in vitro. Purified microtubules obtained from bovine brain were purchased from Cytoskeleton Inc. (Denver, Colo., USA). The motor domain of human KSP (Eg 5, KNSL1) was cloned, expressed, and purified to greater than 95% homogeneity. Biomol Green was purchased from Affinity Research Products Ltd. (Matford Court, Exeter, Devon, United Kingdom). Microtubules and KSP motor protein (i.e., the KSP motor domain) were diluted in assay buffer (20 mM Tris-HCl (pH 7.5), 1 mM MgCl2, 10 mM DTT and 0.25 mg/mL BSA) to a final concentration of 35 μg/mL microtubules and 45 nM KSP. The microtubule/KSP mixture was then pre-incubated at 37° C. for 10 min to promote the binding of KSP to microtubules.
# To each well of the testing plate (384-well plate) containing 1.25 μL of inhibitor or test compound in DMSO (or DMSO only in the case of controls) were added 25 μL of ATP solution (ATP diluted to a concentration of 300 μM in assay buffer) and 25 μL of the above-described microtubule/KSP solution. The plates were incubated at RT for 1 hour. Following incubation, 65 μL of Biomol Green (a malachite green-based dye that detects the release of inorganic phosphate) was added to each well. The plates were incubated for an additional 5-10 minutes then the absorbance at 630 nm was determined using a Victor II plate reader. The amount of absorbance at 630 nm corresponded to the amount of KSP activity in the samples. The IC50 of each inhibitor or test compound was then determined based on the decrease in absorbance at 630 nm at each concentration, via nonlinear regression using either XLFit for Excel or Prism data analysis software by GraphPad Software Inc.
row,SMILES,IC50
1,"C[C@H](O)C(=O)N(CC[C@@H](N)C(F)F)[C@@H](c1nc(-c2cc(F)ccc2F)nn1Cc1cccc(C(F)(F)F)c1)C(C)(C)C [Compound 78, (S)-N-((R)-3-amino-4,4-difluorobutyl)-N-((R)-1-(3-(2,5-difluorophenyl)-1-(3-(trifluoromethyl)benzyl)-1H-1,2,4-triazol-5-yl)-2,2-dimethylpropyl)-2-hydroxypropanamide]",> 0.1 µM and ≤ 1 µM
2,"C[C@H](O)C(=O)N(CC[C@H](N)C(F)F)[C@@H](c1nc(-c2cc(F)ccc2F)nn1Cc1cccc(C(F)(F)F)c1)C(C)(C)C [Compound 80, (S)-N-((S)-3-amino-4,4-difluorobutyl)-N-((R)-1-(3-(2,5-difluorophenyl)-1-(3-(trifluoromethyl)benzyl)-1H-1,2,4-triazol-5-yl)-2,2-dimethylpropyl)-2-hydroxypropanamide]",> 0.1 µM and ≤ 1 µM
3,"C[C@H](O)C(=O)N(CC[C@H](N)CF)[C@@H](c1nc(-c2cc(Cl)cc(Cl)c2)nn1Cc1ccccc1)C(C)(C)C [Compound 71, (S)-N-((S)-3-amino-4-fluorobutyl)-N-((R)-1-(1-benzyl-3-(3,5-dichlorophenyl)-1H-1,2,4-triazol-5-yl)-2,2-dimethylpropyl)-2-hydroxypropanamide]",> 1 µM
4,"C[C@H](O)C(=O)N(CC[C@@H](N)C(F)F)[C@@H](c1nc(-c2cc(F)ccc2F)nn1Cc1cccc(C#N)c1)C(C)(C)C [Compound 77, (S)-N-((R)-3-amino-4,4-difluorobutyl)-N-((R)-1-(1-(3-cyanobenzyl)-3-(2,5-difluorophenyl)-1H-1,2,4-triazol-5-yl)-2,2-dimethylpropyl)-2-hydroxypropanamide]",> 0.1 µM and ≤ 1 µM

# More lines, now with the values ahead:
row,IC50,SMILES
1,> 1 µM,"CC(C)c1cccc(Cn2nc(-c3cc(F)ccc3F)nc2[C@H](N(CC[C@H](N)C(F)F)C(=O)[C@H](C)O)C(C)(C)C)c1 [Compound 85, (S)-N-((S)-3-amino-4,4-difluorobutyl)-N-((R)-1-(3-(2,5-difluorophenyl)-1-(3-isopropylbenzyl)-1H-1,2,4-triazol-5-yl)-2,2-dimethylpropyl)-2-hydroxypropanamide]"
2,> 1 µM,"CC(C)c1cccc(Cn2nc(-c3cc(F)ccc3F)nc2[C@H](N(CC[C@@H](N)C(F)F)C(=O)[C@H](C)O)C(C)(C)C)c1 [Compound 86, (S)-N-((R)-3-amino-4,4-difluorobutyl)-N-((R)-1-(3-(2,5-difluorophenyl)-1-(3-isopropylbenzyl)-1H-1,2,4-triazol-5-yl)-2,2-dimethylpropyl)-2-hydroxypropanamide]"
3,≤ 0.1 µM,"Cc1cccc(Cn2nc(-c3cc(F)ccc3F)nc2[C@H](N(CC[C@H](N)C(F)F)C(=O)[C@H](C)O)C(C)(C)C)c1 [Compound 79, (S)-N-((S)-3-amino-4,4-difluorobutyl)-N-((R)-1-(3-(2,5-difluorophenyl)-1-(3-methylbenzyl)-1H-1,2,4-triazol-5-yl)-2,2-dimethylpropyl)-2-hydroxypropanamide]"

# — patent US7902240B2, “Substituted pyrazole and triazole compounds as KSP inhibitors” (Novartis AG, priority 2006, dated 2011)
